Tests used:
MDA-MB-231 cells [1] = test: MTT cell viability assay, MDA-MB-231; type: cell-based; conditions: Homo sapiens; MDA-MB-231 (low PDIA17), 72 h; read-out: IC50, MTT proliferation
Procedure: (§1) The proliferation rate of the cells was measured using an MTT assay. (see Additional file 1: Methods for details). IC50 parameter was determined as previously described.
(§2) The proliferation rate of the cells was measured using an MTT assay. The cells were seeded on 96-well plates (Sarstedt, Warsaw, Poland) at a density of MDA-MB-231, BALB/3T3 and MCF10A 1×10^4 cells/well, MCF-7 0.75×10^4 cells/well. Cells were incubated in the appropriate culture medium for 24 h before adding the tested compounds. Cells were then treated with each compound in four concentrations in the range 100–0.1 µg/mL. […] Absorbance was measured using a Bio Tek Hybrid H4 reader (BioTek Instruments, USA) at 570 nm wavelength.
(§3) Compounds at each concentration were tested in triplicate in a single experiment, and each experiment was repeated at least three times independently.

PDIA17 = target: T1, PDIA17 (Homo sapiens, UniProt O95994); test: Insulin reduction turbidimetry assay, PDIA17; type: biochemical
T1 construct: PDIA17 (recombinant protein ab64013, human, full length, E.coli, Abcam, Cambridge); purchased Abcam ab64013; host or cells: E. coli
T1 sequence (O95994 21-175): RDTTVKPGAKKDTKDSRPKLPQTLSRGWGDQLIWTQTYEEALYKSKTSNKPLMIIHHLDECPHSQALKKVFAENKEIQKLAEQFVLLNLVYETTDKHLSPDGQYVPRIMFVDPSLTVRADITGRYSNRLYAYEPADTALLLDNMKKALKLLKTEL
Procedure: The PDI inhibitor activity towards PDIA1, PDIA3 and PDIA17 was assessed as an increase in disulphide bond reduction in human insulin in the presence of DL-dithiotreitol (DTT) causing aggregation of its β-chain, analyzed by turbidimetry as presented earlier by Kalvins et al. and Chlopicki et al. (see Additional file 1: Methods for more details).
The PDI inhibitors’ activity towards PDIA1, PDIA3 and PDIA17 was assessed as an increase in disulphide bond reduction in human insulin in the presence of DTT causing aggregation of its β-chain, analyzed by turbidimetry as presented earlier by Kalvins et al. 2021 and Chlopicki et al., 2021. Briefly, the assay mixture for 96-well plates was prepared by dissolving in […] phosphate buffer (pH 7.6 for activity testing of PDIA1, PDIA3 and pH 8.0 for PDIA17), 6 µg/ml (96 nM) of PDIA1 (recombinant protein MBS9422429, human, full length, 18-508aa His-tag, E.coli, MyBioSource, San Diego, CA, USA), PDIA3 (recombinant protein MBS203583, 25-505aa, human, His-tag, E.coli, MyBioSource, San Diego, CA, USA) or PDIA17 (recombinant protein ab64013, human, full length, E.coli, Abcam, Cambridge), 2 mM EDTA and 0.08 mM DTT (D9779 Sigma-Aldrich, Steinheim, Germany). Stock solutions of C-3353, C-3380, C-3389 and C-3399 were freshly prepared in dimethyl sulfoxide (DMSO) and subsequently diluted to keep the final DMSO concentration in the assay mixture below 1%. Calculated amounts of compounds solutions were added into test wells, and the reaction was started by the addition of insulin (insulin 91077C, human recombinant; Sigma-Aldrich, Steinheim, Germany) and 0.08 mM of DTT. The final concentration of insulin and DTT in the assay mixture was 0.15 and 0.16 mM, respectively. The reaction rate was monitored at 650 nm on a Microplate Reader Infinite M1000 PRO for 60 minutes at 37°C. Turbidity values for the wells containing only the PDI isoform tested (background values) were subtracted from the turbidity values of the wells containing the tested PDI isoform and selected inhibitors. […]

MDA-MB-231 cells [2] = test: ECIS wound healing migration assay, MDA-MB-231; type: cell-based; conditions: Homo sapiens, tested 10, 30, 100 µM, read-out: Concentration effectively inhibiting migration (ECIS wounding assay)
Description: (§4) The migration of MCF-7 and MDA-MB-231 cells was monitored using real-time quantitative wound healing assays and 96W1E + ECIS arrays (Applied Biophysics, Troy, NY, USA) according to the procedure reported by Stojak et al. with minor modifications and C-3353 inhibitor as a tested compound. Detailed procedures for the ECIS studies are described in Additional file 1: Methods.
(§5) The migration of MCF-7 and MDA-MB-231 cells was monitored using real-time quantitative wound healing assays and 96W1E+ ECIS arrays (Applied Biophysics, Troy, NY, USA) according to the procedure reported by Stojak et al. (2020) with minor modifications. To this end, MDA-MB-231 cells were seeded at a density of 3 × 10^4 per well and MCF-7 cells at a density of 6 × 10^4 cells per well. Before the cell seeding procedure, the 96W1E+ plate was pretreated with 10 mM L-cysteine (Sigma-Aldrich, Steinheim, Germany) according to the manufacturer’s instruction. Immediately after cell seeding, resistance (Ω), capacitance (µF) and impedance (Ω) measurements were initiated at frequencies from 250 Hz to 64 kHz (250, 500, 1000, 2000, 4000, 8000, 16,000, 32,000 and 64,000 Hz) using the multiple frequency time mode. […] The healing process was measured continuously as cells migrated onto the electrode. The area under the curve (AUC) was quantified and normalized to the untreated control. […]

MCF-7 cells [3] = test: ECIS wound healing migration assay, MCF-7; type: cell-based; conditions: Homo sapiens, MCF7, tested 10, 30, 100 µM, read-out: Concentration substantially reducing migration rate (ECIS wounding assay)
Description: as §4, §5

PDIA1 = conditions: recombinant human PDIA1, insulin/DTT turbidimetry, pH 7.6; cited from earlier work
[4] = MTT cytotoxicity against regular cell line BALB/3T3; type: cell-based; conditions: balb/3t3 cells, BALB/3T3 mouse fibroblasts, read-out: IC50, cytotoxicity against regular cell line
Procedure: as §1
(§6) To test cytotoxicity of compounds used in this study against regular cell lines, BALB/3T3 and MCF10A cells were used, mouse fibroblast and human breast epithelial cell line, respectively.
as §2, §3

[5] = MTT cytotoxicity against regular cell line MCF10A; type: cell-based; conditions: MCF10A human breast epithelial cells, read-out: IC50, cytotoxicity against regular cell line
Procedure: as §1, §6, §2, §3

MDA-MB-231 cells [6] = test: Cancer cell adhesion to collagen type I, MDA-MB-231; type: cell-based; conditions: Homo sapiens
Procedure: (§7) Detailed procedures for the cancer cell adhesion studies are described in Additional file 1: Methods.
(§8) Briefly, 96-well plates (Corning, Tewksbury, MA, USA) were coated with collagen type I at a concentration of 10 μg/mL (Sigma-Aldrich, Steinheim, Germany) and incubated at 4°C overnight. After 24 h, the plates were blocked with 1% bovine serum albumin (BSA) (Sigma-Aldrich, Steinheim, Germany) in DPBS buffer (Gibco, Scotland, UK) for 60 minutes at 37°C. […] Then, cancer cells were left to adhere to collagen I for 30 min at 37°C. Non-adherent cells were gently washed twice with DPBS, and attached cells were counted in nine randomly selected visual fields for each well using a CQ1 image cytometer (Yokogawa, Tokyo, Japan). Experiments were conducted twice in six technical replicates. The images were analyzed using Columbus 2.4.2 software (Perkin Elmer, Waltham, MA, USA).

MCF-7 cells [7] = test: Cancer cell adhesion to collagen type I, MCF-7; type: cell-based; conditions: Homo sapiens, MCF7
Procedure: as §7, §8

MCF-7 cells [8] = test: MTT cell viability assay, MCF-7; type: cell-based; conditions: Homo sapiens, MCF7; MCF-7 (high PDIA17), 72 h; read-out: IC50, MTT proliferation
Procedure: as §1, §2, §3

PDIA3 = conditions: recombinant human PDIA3, insulin/DTT turbidimetry, pH 7.6; cited from earlier work

Row | SMILES | IC50 (MDA-MB-231 cells [1]) | IC50 (PDIA17) | minimal effective concentration (MDA-MB-231 cells [2]) | minimal effective concentration (MCF-7 cells [3]) | IC50 (PDIA1) | IC50 PDIA1 (PDIA1) | CC50 at 72 h [4] | CC50 at 72 h [5] | minimal effective concentration (MDA-MB-231 cells [6]; MDA-MB-231, read-out: Concentration inhibiting adhesion to collagen) | minimal effective concentration (MCF-7 cells [7]; MCF-7, read-out: Concentration inhibiting adhesion to collagen) | IC50 (MCF-7 cells [8]) | IC50 (PDIA3) | IC50 PDIA3 (PDIA3) | IC50 PDIA17 (PDIA17; recombinant human PDIA17, insulin/DTT turbidimetry, pH 8.0, n.a. = not active in range of concentrations used) | activity at 10 µM (MDA-MB-231 cells [6]; MDA-MB-231, inhibitor 10 µM) | activity at 3 µM (MCF-7 cells [7]; MCF-7, inhibitor 3 µM)
1 | COC(=O)C1CN1S(=O)(=O)c1ccc(F)cc1F (stereo not drawn) [Inhibitor C-3353] | 87.4 ± 9.42 µM | 20.1 µM | 100 µM | ≥ 30 µM | 5 µM | inhibitory effect on PDIA1 | > 360 µM | 75.6 ± 4.05 µM | 50 µM | 3 µM | 22.5 ± 6.42 µM | 143 µM | not on PDIA3 |  |  | 
2 | COC(=O)C1CN1S(=O)(=O)c1ccc2c(N(C)C)cccc2c1 (stereo not drawn) [Inhibitor C-3399] | 8.69 ± 0.89 µM | > 200 µM |  |  | 0.12 µM |  | 38.2 ± 10.3 µM | 17.9 ± 1.15 µM |  |  | 11.1 ± 0.78 µM | 4 µM | low micromolar range | not effective | ~75% | ~50%
